Legend:
[1] = target: Poly [ADP-ribose] polymerase 1 (Homo sapiens, UniProt P09874); experiment: In vitro inhibitory concentration against human recombinant Poly (ADP-ribose) polymerase 1
[2] = Concentration in plasma was measured at 2 hrs in mice following po administration of 32 mg/kg; format: ADME, organism-based; parameters: dose 32 mg/kg, route oral; settings: mouse
[3] = Concentration in brain tissue was measured at 0.5 hrs in mice following po administration of 32 mg/kg; format: ADME, organism-based; parameters: dose 32 mg/kg, route oral; settings: mouse
[4] = Concentration in brain tissue was measured at 2 hrs in mice following po administration of 32 mg/kg; format: ADME, organism-based; parameters: dose 32 mg/kg, route oral; settings: mouse
[5] = Concentration in plasma was measured at 0.5 hrs in mice following po administration of 32 mg/kg; format: ADME, organism-based; parameters: dose 32 mg/kg, route oral; settings: mouse
[6] = Ratio of brain tissue concentration to that of plasma concentration; format: ADME; settings: mouse; for Kp: brain / plasma
[7] = Concentration in brain tissue was measured at 0.5 hrs in mice following ip administration of 32 mg/kg; format: ADME, organism-based; parameters: dose 32 mg/kg, route intraperitoneal; settings: mouse
[8] = Concentration in plasma was measured at 0.5 hrs in mice following ip administration of 32 mg/kg; format: ADME, organism-based; parameters: dose 32 mg/kg, route intraperitoneal; settings: mouse
[9] = Half-life in dog after iv administration of 1.0 mg/kg; format: ADME, organism-based, Canis lupus familiaris; parameters: dose 1 mg/kg, route intravenous; settings: in vivo
[10] = Clearance in human liver microsomes when incubated at 37 degree Celsius in the presence of NADPH-generating system
[11] = Cmax value in mouse after po administration of 10 mg/kg; format: ADME, organism-based; parameters: dose 10 mg/kg, route oral; settings: in vivo
[12] = Clearance in rat liver microsomes when incubated at 37 degree Celsius in the presence of NADPH-generating system
[13] = Clearance in mouse liver microsomes when incubated at 37 degree Celsius in the presence of NADPH-generating system
[14] = Cmax value in rat after po administration of 10 mg/kg; format: ADME, organism-based; parameters: dose 10 mg/kg, route oral; settings: in vivo
[15] = Half-life in rat after iv administration of 10 mg/kg; format: ADME, organism-based; parameters: dose 10 mg/kg, route intravenous; settings: in vivo
[16] = AUC value in dog after po administration of 1.0 mg/kg; format: ADME, organism-based, Canis lupus familiaris, Plasma; parameters: dose 1 mg/kg, route oral; settings: in vivo
[17] = Bioavailability in dog after iv administration of 1.0 mg/kg; format: ADME, organism-based, Canis lupus familiaris; settings: in vivo, read-out: Bioavailabiility
[18] = Cmax value in dog after po administration of 1.0 mg/kg; format: ADME, organism-based, Canis lupus familiaris; parameters: dose 1 mg/kg, route oral; settings: in vivo
[19] = Bioavailability in rat after iv administration of 10 mg/kg; format: ADME, organism-based; settings: in vivo, read-out: Bioavailabiility
[20] = Clearance of compound in rat after iv administration of 10 mg/kg; format: ADME, organism-based; parameters: dose 10 mg/kg, route intravenous; settings: in vivo
[21] = AUC value in rat after po administration of 10 mg/kg; format: ADME, organism-based, Plasma; parameters: dose 10 mg/kg, route oral; settings: in vivo
[22] = Clearance of compound in dog after iv administration of 1.0 mg/kg; format: ADME, organism-based, Canis lupus familiaris; parameters: dose 1 mg/kg, route intravenous; settings: in vivo
[23] = Clearance in dog liver microsomes when incubated at 37 degree Celsius in the presence of NADPH-generating system

Chain of Poly [ADP-ribose] polymerase 1 (P09874 whole entry): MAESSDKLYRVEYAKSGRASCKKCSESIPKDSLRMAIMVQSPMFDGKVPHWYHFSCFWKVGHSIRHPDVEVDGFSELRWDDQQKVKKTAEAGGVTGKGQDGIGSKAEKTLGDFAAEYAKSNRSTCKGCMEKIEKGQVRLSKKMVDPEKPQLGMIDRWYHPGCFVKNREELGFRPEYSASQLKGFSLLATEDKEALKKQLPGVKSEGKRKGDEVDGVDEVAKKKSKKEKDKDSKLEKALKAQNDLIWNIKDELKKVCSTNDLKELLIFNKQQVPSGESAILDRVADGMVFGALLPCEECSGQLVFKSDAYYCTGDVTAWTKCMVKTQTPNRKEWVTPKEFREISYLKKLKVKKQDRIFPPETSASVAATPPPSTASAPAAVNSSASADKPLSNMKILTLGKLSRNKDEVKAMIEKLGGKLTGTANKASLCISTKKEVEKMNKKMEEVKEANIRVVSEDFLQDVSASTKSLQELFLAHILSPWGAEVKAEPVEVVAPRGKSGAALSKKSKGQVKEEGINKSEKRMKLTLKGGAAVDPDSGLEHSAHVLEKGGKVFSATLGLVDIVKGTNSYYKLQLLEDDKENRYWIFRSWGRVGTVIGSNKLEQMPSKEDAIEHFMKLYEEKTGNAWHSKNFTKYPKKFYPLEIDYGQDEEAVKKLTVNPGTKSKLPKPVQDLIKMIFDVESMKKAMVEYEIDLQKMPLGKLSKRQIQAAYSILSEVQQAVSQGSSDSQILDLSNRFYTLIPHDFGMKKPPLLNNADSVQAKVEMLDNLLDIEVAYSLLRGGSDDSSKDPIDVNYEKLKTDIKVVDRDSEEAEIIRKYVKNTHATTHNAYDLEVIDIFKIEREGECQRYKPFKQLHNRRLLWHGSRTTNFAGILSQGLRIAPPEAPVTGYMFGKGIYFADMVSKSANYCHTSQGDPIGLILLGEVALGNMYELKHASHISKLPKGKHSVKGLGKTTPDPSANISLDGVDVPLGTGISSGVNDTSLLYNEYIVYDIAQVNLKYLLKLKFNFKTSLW

| Structure (SMILES) | IC50 [1] [nM] | concentration at 2 h [2] [ng/mL] | concentration at 0.5 h [3] [ng/g] | concentration at 2 h [4] [ng/g] | concentration at 0.5 h [5] [ng/mL] | further results |
| --- | --- | --- | --- | --- | --- | --- |
| Oc1nc(CCCN2CC=C(c3ccccc3F)CC2)nc2ccccc12 | 37 |  |  |  |  |  |
| O=c1[nH]c(CCCN2CC=C(c3cccc(F)c3)CC2)nc2ccccc12 | 23 |  |  |  |  |  |
| N#Cc1ccc(C2=CCN(CCCc3nc(O)c4ccccc4n3)CC2)cc1 | 6 | 5200 | 4500 | 540 | 20000 |  |
| Oc1nc(CCCN2CC=C(c3ccccc3)CC2)nc2ccc(Cl)cc12 | 27 | 15500 | 18600 | 14200 | 16200 |  |
| O=c1[nH]c(CCCN2CC=C(c3ccccc3)CC2)nc2c(Cl)cc(Cl)cc12 | 39 |  |  |  |  |  |
| Oc1nc(CCCN2CCC3=C(CCc4ccccc43)C2)nc2ccccc12 | 12 |  |  |  |  |  |
| Oc1nc(CCCN2CC=C(c3ccccc3)CC2)nc2cc(Cl)ccc12 | 250 | 510 | 6120 | 2660 | 80 |  |
| O=c1[nH]c(CCCN2CC=C(c3ccccc3)CC2)nc2cccc(Cl)c12 | 65 | 2170 | 4600 | 2820 | 4180 | Kp [6]: 5.8; concentration at 0.5 h [7]: 7000 ng/g; concentration at 0.5 h [8]: 1200 ng/mL |
| Cc1ccc(C2=CCN(CCCc3nc(O)c4ccccc4n3)CC2)cc1 | 17 | 840 | 5310 | 2340 | 5400 |  |
| CCc1cccc2c(O)nc(CCCN3CC=C(c4ccccc4)CC3)nc12 | 66 |  |  |  |  |  |
| COc1ccccc1C1=CCN(CCCc2nc(O)c3ccccc3n2)CC1 | 170 |  |  |  |  |  |
| Oc1nc(CCCN2CC=C(c3ccc(-[n+]4ccccc4)cc3)CC2)nc2ccccc12 | 12 | 620 | 2760 | 300 | 14100 |  |
| O=c1[nH]c(CCCC2CC=C(c3ccccc3)CC2)nc2ccccc12 (stereo not given) | > 1000 |  |  |  |  |  |
| Cc1cccc2c(=O)[nH]c(CCCN3CC=C(c4ccccc4)CC3)nc12 | 14 | 400 | 2540 | 730 | 940 |  |
| Oc1nc(CCCN2CCN(c3ccccc3)CC2)nc2ccccc12 |  | 530 | 2850 | 300 | 2270 |  |
| O=c1[nH]c(CCCN2CCC(c3ccccc3)CC2)nc2ccccc12 | 46 |  | 370 | 100 | 250 |  |
| O=c1[nH]c(CCCN2CC=C(c3ccc(F)cc3)CC2)nc2ccccc12 | 8.9 | 3480 | 3540 | 1160 | 6830 |  |
| O=c1[nH]c(CCCN2CC=C(c3ccc(Cl)cc3)CC2)nc2ccccc12 | 23 | 2780 | 23900 | 9410 | 12100 |  |
| O=c1[nH]c(CCCN2CC=C(c3ccccc3)CC2)nc2c(Cl)cccc12 | 26 | 1200 | 7990 | 8430 | 1280 |  |
| O=c1[nH]c(CCCN2CC=C(c3ccc(F)cc3)CC2)nc2c(Cl)cccc12 | 13 | 500 | 5600 | 2100 | 1000 | half-life [9]: 6 h; Kp [6]: 5.6; Ratio ([6]; plasma): 4.2; CLint scaled [10]: 156 mL/min/kg; Cmax [11]: 300 ng/mL; CLint scaled [12]: 1240 mL/min/kg; CLint scaled [13]: 2250 mL/min/kg; Cmax [14]: 1330 ng/mL; half-life [15]: 1.4 h; AUC [16]: 3.16 µg/h/mL; bioavailability [17]: 70%; Cmax [18]: 280 ng/mL; bioavailability [19]: 20%; clearance [20]: 13.5 mL/min/kg; AUC [21]: 2.52 µg/h/mL; clearance [22]: 4.8 mL/min/kg; CLint scaled [23]: 141 mL/min/kg |
| COc1cccc2c(=O)[nH]c(CCCN3CC=C(c4ccccc4)CC3)nc12 | 26 |  | 1150 |  | 240 |  |
| O=c1[nH]c(CCCN2CC=C(c3ccc(C(F)(F)F)cc3)CC2)nc2ccccc12 | 25 | 3270 | 23400 | 19500 | 6800 |  |
| O=c1[nH]c(=O)n(CCCCN2CC=C(c3ccccc3)CC2)c2cccc(F)c12 |  |  |  |  |  | Kp [6]: 0.86; concentration at 0.5 h [7]: 600 ng/g; concentration at 0.5 h [8]: 700 ng/mL |
| Oc1nc(CCCN2CC=C(c3ccc(-c4ccccc4)cc3)CC2)nc2ccccc12 | 34 |  |  |  |  |  |
| Cc1nc2cccc(Cl)c2c(=O)[nH]1 |  |  |  |  |  | Kp [6]: 0.82; concentration at 0.5 h [7]: 5500 ng/g; concentration at 0.5 h [8]: 6700 ng/mL |
| O=c1[nH]c(CCCN2CC=C(c3ccc(O)cc3)CC2)nc2ccccc12 | 12 |  |  |  |  |  |
| Oc1nc(CCCN2CCc3c([nH]c4ccccc34)C2)nc2ccccc12 | 74 | 9510 | 580 | 150 | 77200 |  |
| COc1ccc(C2=CCN(CCCc3nc(O)c4ccccc4n3)CC2)cc1 | 8.3 | 1670 | 5610 | 3750 | 6050 |  |
| Oc1nc(CCCN2CC=C(c3ccccc3)CC2)nc2cccc(F)c12 |  | 140 | 1620 | 220 | 370 |  |
| O=c1[nH]c(CCCN2CC=C(c3ccccc3)CC2)nc2ccccc12 | 16 | 150 | 1900 | 370 | 680 |  |
